≈ marks a conversion by molar mass, not a printed value. Calls of active or inactive are those of the source. The rule behind the calls is not given here.
Key:
Staphylococcus aureus [1] = assay: Antibacterial activity against methicillin-resistant Staphylococcus aureus ATCC 43300 at 256 ug/ml after 24 hrs by disc diffusion method; type: functional, organism-based
Staphylococcus aureus [2] = assay: Antibacterial activity against methicillin-sensitive Staphylococcus aureus ATCC 25923 at 256 ug/ml after 24 hrs by disc diffusion method; type: functional, organism-based
Staphylococcus aureus [3] = assay: Antibacterial activity against methicillin-sensitive Staphylococcus aureus ATCC 25923 at 30 ug/ml after 24 hrs by disc diffusion method; type: functional; conditions: ATCC 25923, 24 h, read-out: DIZ
Staphylococcus aureus [4] = assay: Antibacterial activity against methicillin-resistant Staphylococcus aureus ATCC 43300 at 30 ug/ml after 24 hrs by disc diffusion method; type: functional; conditions: ATCC 43300, 24 h, read-out: DIZ
Staphylococcus aureus [5] = assay: Antibacterial activity against methicillin-resistant Staphylococcus aureus ATCC 43300 after 24 hrs by microdilution method; type: functional
Staphylococcus aureus [6] = assay: Antibacterial activity against methicillin-resistant Staphylococcus aureus ATCC 43300 at 102.4 mg/ml after 24 hrs by disc diffusion method; type: functional; conditions: ATCC 43300, 24 h, read-out: DIZ
Staphylococcus aureus [7] = assay: Antibacterial activity against methicillin-sensitive Staphylococcus aureus ATCC 25923 after 24 hrs by microdilution method in presence of non-beta lactam antibiotic ciprofloxacin; type: functional
Staphylococcus aureus [8] = assay: Antibacterial activity against methicillin-resistant Staphylococcus aureus ATCC 43300 after 24 hrs by microdilution method in presence of non-beta lactam antibiotic ciprofloxacin; type: functional
Staphylococcus aureus [9] = assay: Antibacterial activity against methicillin-sensitive Staphylococcus aureus ATCC 25923 after 24 hrs by microdilution method; type: functional
Staphylococcus aureus [10] = assay: Antibacterial activity against methicillin-resistant Staphylococcus aureus ATCC 43300 after 24 hrs by microdilution method in presence of non-beta lactam antibiotic Doxycycline; type: functional
Staphylococcus aureus [11] = assay: Antibacterial activity against methicillin-sensitive Staphylococcus aureus ATCC 25923 at 102.4 mg/ml after 24 hrs by disc diffusion method; type: functional; conditions: ATCC 25923, 24 h, read-out: DIZ
Staphylococcus aureus [12] = assay: Antibacterial activity against methicillin-sensitive Staphylococcus aureus ATCC 25923 at 2 ug/ml after 24 hrs by disc diffusion method; type: functional; conditions: ATCC 25923, 24 h, read-out: DIZ
Staphylococcus aureus [13] = assay: Antibacterial activity against methicillin-resistant Staphylococcus aureus ATCC 43300 at 2 ug/disc after 24 hrs by disc diffusion method; type: functional, organism-based
Staphylococcus aureus [14] = assay: Antibacterial activity against methicillin-sensitive Staphylococcus aureus ATCC 25923 at 15 ug/ml after 24 hrs by disc diffusion method; type: functional; conditions: ATCC 25923, 24 h, read-out: DIZ
Staphylococcus aureus [15] = assay: Antibacterial activity against methicillin-resistant Staphylococcus aureus ATCC 43300 at 15 ug/disc after 24 hrs by disc diffusion method; type: functional, organism-based
Staphylococcus aureus [16] = assay: Antibacterial activity against methicillin-sensitive Staphylococcus aureus ATCC 25923 after 24 hrs by microdilution method in presence of non-beta lactam antibiotic Doxycycline; type: functional
Staphylococcus aureus [17] = assay: Antibacterial activity against methicillin-sensitive Staphylococcus aureus ATCC 25923 after 24 hrs by microdilution method in presence of non-beta lactam antibiotic gentamycin; type: functional
Staphylococcus aureus [18] = assay: Antibacterial activity against methicillin-resistant Staphylococcus aureus ATCC 43300 after 24 hrs by microdilution method in presence of non-beta lactam antibiotic gentamycin; type: functional
Staphylococcus aureus [19] = assay: microbe, parasite or virus in culture; conditions: ATCC 25923, 24 h, read-out: DIZ
Description: Antibacterial activity against methicillin-sensitive Staphylococcus aureus ATCC 25923 at 5 ug/ml after 24 hrs by disc diffusion method

Staphylococcus aureus [20] = assay: microbe, parasite or virus in culture; conditions: ATCC 43300, 24 h, read-out: DIZ
Description: Antibacterial activity against methicillin-resistant Staphylococcus aureus ATCC 43300 at 5 ug/ml after 24 hrs by disc diffusion method

Compound | diameter of the inhibition zone (DIZ) (Staphylococcus aureus [1]) | diameter of the inhibition zone (DIZ) (Staphylococcus aureus [2]) | also measured
COc1ccccc1/C=C/C(=O)c1ccccc1 | inactive | inactive | 
CN[C@H](CC(C)C)C(=O)N[C@H]1C(=O)N[C@@H](CC(N)=O)C(=O)N[C@H]2C(=O)N[C@H]3C(=O)N[C@H](C(=O)N[C@H](C(=O)O)c4cc(O)cc(O)c4-c4cc3ccc4O)[C@H](O)c3ccc(c(Cl)c3)Oc3cc2cc(c3O[C@@H]2O[C@H](CO)[C@@H](O)[C@H](O)[C@H]2O[C@H]2C[C@](C)(N)[C@H](O)[C@H](C)O2)Oc2ccc(cc2Cl)[C@H]1O [VANCOMYCIN] |  |  | zone of inhibition at 30 µg/mL (Staphylococcus aureus [3]): 17 mm; zone of inhibition at 30 µg/mL (Staphylococcus aureus [4]): 16 mm; MIC (Staphylococcus aureus [5]; ATCC 43300, 24 h): 8 µg/mL (≈ 5.52 µM)
COc1cccc(/C=C/C(=O)c2ccccc2)c1OC | inactive | inactive | 
COc1ccc(C(=O)/C=C/c2cc(OC)c(OC)c(OC)c2)c(O)c1 | inactive | inactive | 
COc1ccc(/C=C/C(=O)c2ccccc2)cc1OC | inactive | inactive | 
O=C(/C=C/c1ccc(O)cc1)c1ccccc1 [4-HYDROXYCHALCONE] |  |  | zone of inhibition at 102400 µg/mL (Staphylococcus aureus [6]): 9 mm; fractional inhibitory concentration index (FICI) (Staphylococcus aureus [7]): 0.31; fractional inhibitory concentration index (FICI) (Staphylococcus aureus [8]): 0.25; MIC (Staphylococcus aureus [9]; ATCC 25923, 24 h): 64 µg/mL (≈ 285 µM); MIC (Staphylococcus aureus [5]; ATCC 43300, 24 h): 32 µg/mL (≈ 143 µM); fractional inhibitory concentration index (FICI) (Staphylococcus aureus [10]): 0.62; zone of inhibition at 102400 µg/mL (Staphylococcus aureus [11]): 10 mm
COc1cccc(/C=C/C(=O)c2ccc(Br)cc2)c1OC | inactive | inactive | 
CCC[C@@H]1C[C@@H](C(=O)N[C@@H]([C@H]2O[C@H](SC)[C@H](O)[C@@H](O)[C@H]2O)[C@H](C)Cl)N(C)C1 [CLINDAMYCIN] |  |  | zone of inhibition at 2 µg/mL (Staphylococcus aureus [12]): 24 mm; diameter of the inhibition zone (DIZ) (Staphylococcus aureus [13]): inactive
COc1ccccc1/C=C/C(=O)c1ccccc1O | inactive | inactive | 
CC[C@H]1OC(=O)[C@H](C)[C@@H](O[C@H]2C[C@@](C)(OC)[C@@H](O)[C@H](C)O2)[C@H](C)[C@@H](O[C@@H]2O[C@H](C)C[C@H](N(C)C)[C@H]2O)[C@](C)(O)C[C@@H](C)C(=O)[C@H](C)[C@@H](O)[C@]1(C)O [ERYTHROMYCIN] |  |  | zone of inhibition at 15 µg/mL (Staphylococcus aureus [14]): 25 mm; diameter of the inhibition zone (DIZ) (Staphylococcus aureus [15]): inactive
COc1ccc(/C=C/C(=O)c2ccccc2O)c(OC)c1 | inactive | inactive | 
COc1ccc(C(=O)/C=C/c2ccc(Cl)cc2)c(O)c1 | inactive | inactive | 
O=C(/C=C/c1ccc(Cl)c(Cl)c1)c1ccccc1O | inactive | inactive | 
COc1ccc(C(=O)/C=C/c2ccccc2)c(O)c1 | inactive | inactive | 
COc1ccc(/C=C/C(=O)c2ccccc2O)cc1OC | inactive | inactive | 
O=C(/C=C/c1ccccc1)c1ccccc1O | inactive | inactive | 
O=C(/C=C/c1ccccc1O)c1ccccc1 |  |  | fractional inhibitory concentration index (FICI) (Staphylococcus aureus [16]): 0.31; zone of inhibition at 102400 µg/mL (Staphylococcus aureus [6]): 11 mm; fractional inhibitory concentration index (FICI) (Staphylococcus aureus [8]): 0.75; MIC (Staphylococcus aureus [9]; ATCC 25923, 24 h): 32 µg/mL (≈ 143 µM); MIC (Staphylococcus aureus [5]; ATCC 43300, 24 h): 64 µg/mL (≈ 285 µM); fractional inhibitory concentration index (FICI) (Staphylococcus aureus [10]): 0.15; zone of inhibition at 102400 µg/mL (Staphylococcus aureus [11]): 11 mm
COc1ccc2cc3[n+](cc2c1OC)CCc1cc2c(cc1-3)OCO2 [BERBERINE] |  |  | MIC (Staphylococcus aureus [5]; ATCC 43300, 24 h): 128 µg/mL
O=C(/C=C/c1ccccc1O)c1ccc(Br)cc1 |  |  | fractional inhibitory concentration index (FICI) (Staphylococcus aureus [16]): 0.37; zone of inhibition at 102400 µg/mL (Staphylococcus aureus [6]): 13 mm; MIC (Staphylococcus aureus [9]; ATCC 25923, 24 h): 32 µg/mL (≈ 106 µM); MIC (Staphylococcus aureus [5]; ATCC 43300, 24 h): 64 µg/mL (≈ 211 µM); fractional inhibitory concentration index (FICI) (Staphylococcus aureus [10]): 0.62; zone of inhibition at 102400 µg/mL (Staphylococcus aureus [11]): 13 mm

Compound | diameter of the inhibition zone (DIZ) (Staphylococcus aureus [1]) | diameter of the inhibition zone (DIZ) (Staphylococcus aureus [2]) | also measured
COc1ccc(/C=C/C(=O)c2ccc(Br)cc2)cc1 | inactive | inactive | 
GENTAMICIN |  |  | MIC (Staphylococcus aureus [9]): 1 µg/mL; MIC (Staphylococcus aureus [5]): 4 µg/mL
COc1ccc(/C=C/C(=O)c2ccc(OC)cc2O)cc1 | inactive | inactive | 
COc1ccc(/C=C/C(=O)c2ccccc2O)cc1 | inactive | inactive | 
O=C(/C=C/c1ccccc1O)c1ccccc1O |  |  | fractional inhibitory concentration index (FICI) (Staphylococcus aureus [17]): 0.36; fractional inhibitory concentration index (FICI) (Staphylococcus aureus [16]): 0.25; zone of inhibition at 102400 µg/mL (Staphylococcus aureus [6]): 14 mm; fractional inhibitory concentration index (FICI) (Staphylococcus aureus [7]): 1.5; fractional inhibitory concentration index (FICI) (Staphylococcus aureus [8]): 0.62; MIC (Staphylococcus aureus [9]; ATCC 25923, 24 h): 64 µg/mL (≈ 266 µM); fractional inhibitory concentration index (FICI) (Staphylococcus aureus [18]): 0.5; MIC (Staphylococcus aureus [5]; ATCC 43300, 24 h): 64 µg/mL (≈ 266 µM); fractional inhibitory concentration index (FICI) (Staphylococcus aureus [10]): 0.15; zone of inhibition at 102400 µg/mL (Staphylococcus aureus [11]): 14 mm
COc1ccc(C(=O)/C=C/c2ccc(OC)cc2OC)c(O)c1 | inactive | inactive | 
COc1ccc(/C=C/C(=O)c2ccccc2)cc1 | inactive | inactive | 
COc1cccc(/C=C/C(=O)c2ccc(Br)cc2)c1 | inactive | inactive | 
COc1ccccc1/C=C/C(=O)c1ccc(Br)cc1 | inactive | inactive | 
O=C(/C=C/c1ccc(Cl)cc1)c1ccccc1O | inactive | inactive | 
O=C(/C=C/c1ccccc1)c1ccc(Br)cc1 | inactive | inactive | 
C[C@H]1c2cccc(O)c2C(=O)C2=C(O)[C@]3(O)C(=O)C(C(N)=O)=C(O)[C@@H](N(C)C)[C@@H]3[C@@H](O)[C@@H]21.O [DOXYCYCLINE] |  |  | zone of inhibition at 30 µg/mL (Staphylococcus aureus [3]): 27 mm; MIC (Staphylococcus aureus [9]; ATCC 25923, 24 h): 8 µg/mL; zone of inhibition at 30 µg/mL (Staphylococcus aureus [4]): 27 mm; MIC (Staphylococcus aureus [5]; ATCC 43300, 24 h): 4 µg/mL
O=C(/C=C/c1ccccc1)c1ccccc1 | inactive | inactive | 
COc1ccc(/C=C/C(=O)c2ccc(Br)cc2)cc1OC | inactive | inactive | 
COc1ccc(C(=O)/C=C/c2ccc(OC)c(OC)c2)c(O)c1 | inactive | inactive | 
O=C(O)c1cn(C2CC2)c2cc(N3CCNCC3)c(F)cc2c1=O [CIPROFLOXACIN] |  |  | zone of inhibition at 5 µg/mL (Staphylococcus aureus [19]): 27 mm; MIC (Staphylococcus aureus [9]; ATCC 25923, 24 h): 0.25 µg/mL (≈ 0.754 µM); MIC (Staphylococcus aureus [5]; ATCC 43300, 24 h): 0.5 µg/mL (≈ 1.51 µM); zone of inhibition at 5 µg/mL (Staphylococcus aureus [20]): 21 mm
COc1cc(/C=C/C(=O)c2ccccc2O)cc(OC)c1OC | inactive | inactive | 
COc1ccc(C(=O)/C=C/c2ccc(Cl)c(Cl)c2)c(O)c1 | inactive | inactive | 
O=C(N[C@H](CO)[C@H](O)c1ccc([N+](=O)[O-])cc1)C(Cl)Cl [CHLORAMPHENICOL] |  |  | zone of inhibition at 30 µg/mL (Staphylococcus aureus [3]): 25 mm; zone of inhibition at 30 µg/mL (Staphylococcus aureus [4]): 26 mm

Source: ChEMBL document CHEMBL2046424, “Synthesis and anti Methicillin resistant Staphylococcus aureus activity of substituted chalcones alone and in combination with non-beta-lactam antibiotics” (2012)
